This is an account of results in patent publication US11738030B2, “Treatments for disturbed cerebral homeostasis” (Aneuryst, Inc., priority 2021, dated 2023).

The nature of test [1]: Intraparenchymal ICP measurement in adult patient with suspected bacterial meningitis. Format: in vivo. The settings on record: 60 mg intravenous infusion; adult patient with ICP>20 mmHg and suspected bacterial meningitis. On the procedure:
In an adult patient with an ICP>20 mmHg and suspected bacterial meningitis as determined by lumbar puncture, one would administer by intravenous infusion 60 mg fasudil hydrochloride. One would place an intraparenchymal device to measure ICP in the patient.

Test [2] concerns adult male Sprague-Dawley rats. The test can be described thus: Brain water content after endovascular perforation in rats. Format: in vivo, rat. The note with it: one treatment, 24 h. The method, then: A sharpened 4-0 nylon suture was introduced into the left internal carotid artery of 92 adult male Sprague-Dawley rats weighing […]. In 65 of the 92 rats, the bifurcation of the anterior and middle cerebral arteries was endovascularly perforated; in the remaining 27 rats, the suture was withdrawn without perforation.
At 0.5 hours after the procedure, 34 of the 65 perforated rats were administered 1.5 ml of 0.9% saline (vehicle group), and the remaining 31 were administered 10 mg/kg hydroxyfasudil dissolved in 1.5 ml of 0.9% saline (hydroxyfasudil group). The 27 unperforated rats received neither vehicle nor […] (sham group).
24 hours after the procedure, all rats were sacrificed. The animals' brains were removed and separated into left hemisphere, right hemisphere, cerebellum and brain stem. Each part was weighed immediately after removal (wet weight) and after drying in 100° C. for 72 h (dry weight). The percentage of water content was calculated as [(wet weight−dry weight)/wet weight]×100%.

The subject of test [3] is adult male Sprague-Dawley rats. The note with it: cited from earlier work; for Mean percentage of brain water content, Cerebellum / Mean percentage of brain water content, Left Hemisphere / Mean percentage of brain water content, Right Hemisphere: 24 hrs post-surgery.
For test [4], the system named is adult male Sprague-Dawley rats. The note with it: cited from earlier work; for Garcia neurological score: SAH + HF.
Where [5] appears, read: one treatment, 10 mg/kg at 0.5 h after perforation, 10 mg/kg.
The mark [6] stands for this setting: one treatment, 10 mg/kg at 0.5 h after perforation, listed as HF, 10 mg/kg.
Setting [7] is: two treatments instead of one, and measurements at 72 hours after perforation.

Where a name gives a salt, the structure may show the parent alone. Read-outs that look alike come from different tables or passages of the source.

Turning to `O=S(=O)(c1cccc2cnccc12)N1CCCNCC1` [fasudil hydrochloride], the “ICP upon fasudil infusion” value in test [1] is recorded as “reduction of ICP”.

`O=c1[nH]ccc2c(S(=O)(=O)N3CCCNCC3)cccc12` [hydroxyfasudil]: the “Increase in water content versus sham group, right hemisphere” value in test [2] (vehicle increase 0.5%) is on record as “about 0.25%”. In addition, the “Increase in water content versus sham group, cerebellum” value in test [2] (vehicle increase 0.6%) is given as “about 0.2%”. Besides, the “Increase in water content versus sham group, left hemisphere” value in test [2] (vehicle increase 0.7%) is “about 0.3%”. The “Improvement in water content increase, left hemisphere” value in test [2] (versus vehicle, p<0.01) is given as “about 57%”. Further, the “Improvement in water content increase, right hemisphere” value in test [2] (versus vehicle, p<0.01) was “about 70%”. The “Improvement in water content increase, cerebellum” value in test [2] (versus vehicle, p<0.05) is given as “about 67%”. In addition, the “Mean percentage of brain water content, Cerebellum” value is recorded as roughly 78.7% in test [3] (setting [5]), 78.7% in test [3] (setting [6]) and 78.84% in test [3] (two treatments). The “Mean percentage of brain water content, Left Hemisphere” value in test [3] (setting [5]) is given as roughly 79.3%; in test [3] (setting [6]) it was 79.3%; in test [3] (two treatments), 79.3%. The “Mean percentage of brain water content, Right Hemisphere” value in test [3] (setting [5]) is given as roughly 79.25%; in test [3] (setting [6]), 79.35%; in test [3] (two treatments), 79.25%. In addition, the “Difference in brain water content between vehicle group and hydroxyfasudil group” value in test [3] (setting [7]) is recorded as “failed to demonstrate any significant differences”. For the same molecule, the Garcia neurological score is reported as 14 in test [4] (1 treatment, 24 hrs, score out of 18); 14 in test [4] (1 treatment, 72 hrs); 15.5 in test [4] (2 treatments, 24 hrs). For the same molecule, in test [4] (setting [7]), the “Difference in neurological performance between vehicle group and hydroxyfasudil group” value was “failed to demonstrate any significant differences”.
